Experimental data reported in PubChem BioAssay AID504680 (Sanford-Burnham Center for Chemical Genomics, 2011).
The source made the active and inactive calls.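 Rule for the calls: active = IC50 below 100 µM in the TR-FRET assay, unless also active in the caspase-3 counter assay; inactive = the rest, including compounds also active in caspase-3.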

Target: Caspase-3 (Homo sapiens) (UniProt P42574)
Experiment: caspase-3 inhibitors as false-positive filter, SAR follow-up, counter-screen for UBC13 polyubiquitin inhibitor project, biochemical, luminescence, Caspase-Glo 3/7 (AID 504680)
Conditions: recombinant caspase-3, Caspase-Glo luminescence, 60 min

Sequence of Caspase-3 (Homo sapiens) (P42574 whole entry, looked up): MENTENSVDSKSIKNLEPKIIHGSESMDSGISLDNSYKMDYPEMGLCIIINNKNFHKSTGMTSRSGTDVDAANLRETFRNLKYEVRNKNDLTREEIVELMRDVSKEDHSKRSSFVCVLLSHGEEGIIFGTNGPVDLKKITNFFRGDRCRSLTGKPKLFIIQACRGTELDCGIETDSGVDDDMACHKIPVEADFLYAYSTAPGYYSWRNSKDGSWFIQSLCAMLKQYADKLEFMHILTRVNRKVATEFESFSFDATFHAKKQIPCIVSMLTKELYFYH

Structure (SMILES)	IC50
Cc1c(NC(=O)CCCN2C(=O)c3cccc4cccc(c34)C2=O)c(=O)n(-c2ccccc2)n1C	> 100 µM (inactive)
CCc1ccc(OCC(O)CN2CCC(CN3C(=O)c4cccc5cccc(c45)C3=O)CC2)cc1 (configuration not stated)	> 100 µM (inactive)
Cc1cccc(OCC(O)CN2CCN(CCN3C(=O)c4cccc5cccc(c45)C3=O)CC2)c1C (configuration not stated)	> 100 µM (inactive)
O=C1c2cccc3cccc(c23)N1Cc1ccc(F)cc1	> 100 µM (inactive)
O=C(CCCCCN1C(=O)c2ccccc2C1=O)NCc1ccccc1	> 100 µM (inactive)
CN(C)CCCN(C(=O)c1ccc(S(=O)(=O)N2CCc3ccccc3C2)cc1)c1nc2ccc(F)cc2s1	> 100 µM (inactive)
CC1(C)Cc2c(sc(NC(=O)COc3ccc(Cl)cc3Cl)c2C(N)=O)C(C)(C)N1	> 100 µM (inactive)
CN1CCN(CCCNC(=O)c2ccc(/C=C3\Oc4ccccc4N(Cc4ccc(Cl)cc4)C3=O)cc2)CC1	> 100 µM (inactive)
Cc1ccc2c(c1)C1CN(C)CCC1N2C(=O)CCCN1C(=O)c2cccc3cccc(c23)C1=O (configuration not stated)	> 100 µM (inactive)
CC(=O)Nc1ccc(OCC(O)CN2CCN(CCN3C(=O)c4cccc5cccc(c45)C3=O)CC2)cc1 (configuration not stated)	> 100 µM (inactive)
O=C(NCCCN1CCCCC1)C1CCN(c2ncnc3c2nc2n3CCCCC2)CC1	> 100 µM (inactive)
O=C(CCCn1c(=O)c2ccccc2n(Cc2cccc(F)c2)c1=O)NC1CCN(Cc2ccccc2)CC1	> 100 µM (inactive)
O=C1c2cccc3cccc(c23)C(=O)N1CCN1CCN(CC(O)COc2ccc3c(c2)OCO3)CC1 (configuration not stated)	> 100 µM (inactive)
O=C(CCCn1c(=O)c2ccccc2n(Cc2cccc([N+](=O)[O-])c2)c1=O)NC1CCN(Cc2ccccc2)CC1	> 100 µM (inactive)
O=C(C1CCN(c2ncnc3c2nc2n3CCCCC2)CC1)N1CCN(c2ccccn2)CC1	> 100 µM (inactive)
CC(C)(C)c1ccc(OCC(O)CN2CCN(CCN3C(=O)c4cccc5cccc(c45)C3=O)CC2)cc1 (configuration not stated)	> 100 µM (inactive)

Structure (SMILES)	IC50
Cc1cc(NS(=O)(=O)c2ccc(NC(=O)CCCCCN3C(=O)c4ccccc4C3=O)cc2)nc(C)n1	> 100 µM (inactive)
CCOc1cccc2sc(N(CCCN(C)C)C(=O)c3ccc(S(=O)(=O)N4CCc5ccccc5C4)cc3)nc12	> 100 µM (inactive)
O=C(CCCCCN1C(=O)c2ccccc2C1=O)Nc1ccc(S(=O)(=O)N2CCCCC2)cc1	> 100 µM (inactive)
O=C1c2cccc3cccc(c23)C(=O)N1CCN1CCN(CC(O)COCc2ccc(Cl)cc2)CC1 (configuration not stated)	> 100 µM (inactive)
COc1ccc(CCNC(=O)CCCCCN2C(=O)c3ccccc3C2=O)cc1OC	> 100 µM (inactive)
CC1CC(C)CN(C(=O)C2CCN(c3ncnc4c3nc3n4CCCCC3)CC2)C1 (configuration not stated)	> 100 µM (inactive)
CCOc1ccc2nc(N(CCCN(C)C)C(=O)c3ccc(C(=O)c4ccccc4)cc3)sc2c1	> 100 µM (inactive)
CN(C)CCCN(C(=O)c1ccc(S(=O)(=O)N2CCCC2)cc1)c1nc2ccc(Br)cc2s1	> 100 µM (inactive)
O=C(C1CCN(c2ncnc3c2nc2n3CCCCC2)CC1)N1CCN(Cc2ccccc2)CC1	> 100 µM (inactive)
O=C(CCCn1c(=O)c2ccccc2n(Cc2ccccc2F)c1=O)NC1CCN(Cc2ccccc2)CC1	> 100 µM (inactive)
Cc1ccc(C)c(CN2CCC(CNC(=O)C3CCCN(c4ncnc5c4nc4n5CCCCC4)C3)CC2)c1 (configuration not stated)	> 100 µM (inactive)
Cc1ccc2nc(N(CCCN(C)C)C(=O)c3ccc(S(=O)(=O)N4CCc5ccccc5C4)cc3)sc2c1	> 100 µM (inactive)
O=C(CCCCCN1C(=O)c2ccccc2C1=O)NCc1ccccn1	> 100 µM (inactive)
CN(C)CCCn1c(SCC(=O)Nc2nc(-c3cccc(Br)c3)cs2)nc2ccccc2c1=O	> 100 µM (inactive)
COc1cccc(NC(=O)CCCCCN2C(=O)c3cccc([N+](=O)[O-])c3C2=O)c1	> 100 µM (inactive)
COc1ccc2sc(N(CCCN(C)C)C(=O)c3ccc(S(=O)(=O)N4CCc5ccccc5C4)cc3)nc2c1	> 100 µM (inactive)
